{
  "source": "BindingDB's records for doi:10.1021/acs.jmedchem.5b01828",
  "about": "(University of Macau, 2016)",
  "key": {"[1]": {"target": "T1, [Pyruvate dehydrogenase (acetyl-transferring)] kinase isozyme 1, mitochondrial (Homo sapiens, UniProt Q15118)", "T1 sequence (Q15118 whole entry, the tested form may be a part)": "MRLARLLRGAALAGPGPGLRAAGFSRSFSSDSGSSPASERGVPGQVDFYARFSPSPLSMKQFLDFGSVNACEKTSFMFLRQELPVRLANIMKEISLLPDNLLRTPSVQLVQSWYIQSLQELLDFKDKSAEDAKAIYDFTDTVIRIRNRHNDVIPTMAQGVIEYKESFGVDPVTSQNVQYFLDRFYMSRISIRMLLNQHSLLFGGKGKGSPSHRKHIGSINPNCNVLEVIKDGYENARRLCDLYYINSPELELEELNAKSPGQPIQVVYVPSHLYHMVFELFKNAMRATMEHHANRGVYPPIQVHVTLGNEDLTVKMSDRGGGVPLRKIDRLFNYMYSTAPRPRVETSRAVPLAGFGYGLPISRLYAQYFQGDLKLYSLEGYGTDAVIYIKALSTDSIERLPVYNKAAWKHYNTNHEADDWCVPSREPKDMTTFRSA", "assay": "Competitive binding affinity to recombinant N-terminal 6xHis-SUMO-tagged human PDK1 (29 to 436 residues) expressed in Escherichia coli BL-21 assessed as Kd of AZD7545 at 50 uM by isothermal titration calorimetric method (Rvb = 290.6 nM)"}, "[2]": {"target": "T1, [Pyruvate dehydrogenase (acetyl-transferring)] kinase isozyme 1, mitochondrial", "assay": "Competitive binding affinity to recombinant N-terminal 6xHis-SUMO-tagged human PDK1 (29 to 436 residues) expressed in Escherichia coli BL-21 assessed as Kd of ADP at 50 uM by isothermal titration calorimetric method (Rvb = 4.27 uM)"}},
  "data": [
    {"smiles": "O=C(Nc1ccc(Cl)c(C(F)(F)F)c1)C(Cl)Cl", "values": [
      {"measurement": "Kd", "setting": "[1]", "result": 291, "unit": "nM"},
      {"measurement": "Kd", "setting": "[2]", "result": 7.87, "unit": "µM"}
    ]}
  ]
}
